Measured values published in BindingDB's records for doi:10.1021/jm3016848 (Ikerchem, 2013).

Assay: Inhibition of LFA-1/ICAM-1 interaction in mouse Lim51b cells assessed as PMA-induced adhesion to ICAM-1 expressing HSE cells measured per 10^5 cells after 30 mins by fluorometric microplate reader analysis

## CC[C@H](C)[C@H](OCc1ccccc1)[C@H]1[C@H]([N+](=O)[O-])[C@H](c2ccccc2)N[C@]1(C)C(=O)NCCC(=O)O
  IC50: 27.6 µM
